Measured values from ChEMBL document CHEMBL1201862, “PubChem BioAssay data set” (2004).
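48-hour exposure; five concentrations; linearly interpolated endpoints. GI50 marks 50% less growth.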 Active and inactive are the calls of the source. No stated cut-off is given here; in the data, active = GI50 up to about 1.1 µM and inactive = higher.

Experiments:
Test in all cases: NCI-60 cell line screen, 48 h
RPMI-8226 = test system: RPMI-8226
ACHN = test system: ACHN
SR = test system: SR
MOLT-4 = test system: MOLT-4
SW-620 = test system: SW-620
SF-539 = test system: SF-539
M19-MEL = test system: M19-MEL
OVCAR-3 = test system: OVCAR-3
HT-29 = test system: HT-29
SNB-75 = test system: SNB-75
UACC-257 = test system: UACC-257
OVCAR-8 = test system: OVCAR-8
UO-31 = test system: UO-31
COLO 205 = test system: COLO 205
MDA-MB-435 = test system: MDA-MB-435
BT-549 = test system: BT-549
MDA-N = test system: MDA-N
Hs-578T = test system: Hs-578T
PC-3 = test system: PC-3
K562 = test system: K562

Measured: GI50

c1ccc2c(c1)C1=NCCN1c1ccccc1-2
active: SR 0.502 µM
inactive: RPMI-8226 2.32 µM | ACHN 2.11 µM | MOLT-4 1.85 µM | SW-620 2.37 µM | SF-539 2.78 µM | M19-MEL 3.44 µM | OVCAR-3 2.95 µM | HT-29 2.41 µM | SNB-75 3.47 µM | UACC-257 2.7 µM | OVCAR-8 2.51 µM | UO-31 2.77 µM | COLO 205 1.38 µM

C=C1C(=O)OC2C1CCC(C)C1C=CC(=O)C12C (stereo not given)
inactive: RPMI-8226 1.81 µM | MDA-MB-435 1.73 µM | ACHN 1.73 µM | SR 1.51 µM | MOLT-4 2.46 µM | SW-620 1.8 µM | BT-549 1.63 µM | SF-539 2.74 µM | M19-MEL 3.36 µM | MDA-N 1.77 µM | OVCAR-3 1.22 µM | Hs-578T 2.56 µM | HT-29 2.02 µM | PC-3 4.49 µM | SNB-75 8.15 µM | K562 2.48 µM | UACC-257 1.97 µM | OVCAR-8 2.06 µM | UO-31 4.75 µM | COLO 205 2.17 µM

COc1ccc(S(=O)(=O)N/N=C/C(=O)O)cc1
inactive: RPMI-8226 269 µM | MDA-MB-435 407 µM | ACHN 354 µM | SR 202 µM | MOLT-4 193 µM | SW-620 485 µM | BT-549 284 µM | SF-539 519 µM | M19-MEL 955 µM | MDA-N 760 µM | OVCAR-3 495 µM | Hs-578T 404 µM | HT-29 336 µM | PC-3 389 µM | SNB-75 708 µM | K562 501 µM | UACC-257 849 µM | OVCAR-8 499 µM | UO-31 631 µM | COLO 205 1010 µM

Cc1ccc([S+]([O-])c2ccccc2[N+](=O)[O-])cc1 (stereo not given)
inactive: RPMI-8226 52.8 µM | ACHN > 100 µM | SR 46 µM | MOLT-4 41.3 µM | SW-620 > 100 µM | SF-539 58.5 µM | M19-MEL 10 µM | OVCAR-3 73.8 µM | HT-29 69.3 µM | K562 64.4 µM | UACC-257 > 100 µM | OVCAR-8 > 100 µM | UO-31 51.2 µM

COc1ccc2c(c1)CCc1c(C(C)=O)c3ccccc3n1C2
inactive: ACHN 12 µM | SR 28.7 µM | MOLT-4 13.4 µM | SW-620 > 100 µM | SF-539 20.7 µM | M19-MEL 57.5 µM | OVCAR-3 12.1 µM | HT-29 > 100 µM | SNB-75 33.4 µM | K562 6.37 µM | UACC-257 15.3 µM | OVCAR-8 28.1 µM | UO-31 11.7 µM | COLO 205 > 100 µM

O=P1(O)c2ccccc2Nc2cc(C(F)(F)F)ccc21
inactive: RPMI-8226 > 100 µM | MDA-MB-435 > 100 µM | ACHN > 100 µM | SR > 100 µM | MOLT-4 > 100 µM | SW-620 > 100 µM | BT-549 > 100 µM | SF-539 > 100 µM | M19-MEL > 100 µM | MDA-N > 100 µM | OVCAR-3 > 100 µM | Hs-578T > 100 µM | HT-29 > 100 µM | PC-3 > 100 µM | SNB-75 > 100 µM | K562 > 100 µM | UACC-257 > 100 µM | OVCAR-8 > 100 µM | UO-31 > 100 µM | COLO 205 > 100 µM

CC1=C(C(=O)NCc2ccccc2)C(c2ccccc2[N+](=O)[O-])C(C(=O)NCc2ccccc2)=C(C)N1
inactive: ACHN 13.9 µM | SR 5.13 µM | MOLT-4 8.93 µM | SW-620 14.5 µM | SF-539 8.09 µM | M19-MEL 11.4 µM | OVCAR-3 5.31 µM | HT-29 12.8 µM | SNB-75 13.6 µM | K562 5.08 µM | UACC-257 13.3 µM | OVCAR-8 13.1 µM | UO-31 13.9 µM | COLO 205 18.7 µM

Ic1ncnc2c1ncn2C1CCCO1 (stereo not given)
inactive: RPMI-8226 > 100 µM | ACHN > 100 µM | SR > 100 µM | MOLT-4 > 100 µM | SW-620 > 100 µM | SF-539 > 100 µM | M19-MEL > 100 µM | OVCAR-3 > 100 µM | HT-29 > 100 µM | SNB-75 35.8 µM | K562 > 100 µM | UACC-257 > 100 µM | OVCAR-8 > 100 µM | UO-31 > 100 µM | COLO 205 > 100 µM

COc1ccc2c3ccc4c(c3n(C)c2c1)C(=O)C=CC4=O
inactive: RPMI-8226 6.41 µM | ACHN 20.7 µM | SR 2.84 µM | MOLT-4 2.86 µM | SW-620 16.4 µM | SF-539 20.8 µM | M19-MEL 18.3 µM | HT-29 > 100 µM | SNB-75 > 100 µM | K562 5.92 µM | UACC-257 29.2 µM | OVCAR-8 16.9 µM | UO-31 20.5 µM | COLO 205 18.8 µM

CCOC(=O)C(C)(C)Oc1ccc(/C=C/C(=O)c2ccc(Cl)cc2)cc1
inactive: RPMI-8226 10.9 µM | ACHN > 10 µM | SR 27.3 µM | MOLT-4 19.6 µM | SW-620 13.9 µM | SF-539 19.5 µM | M19-MEL 20 µM | OVCAR-3 16.3 µM | HT-29 15.6 µM | SNB-75 15.2 µM | K562 14.3 µM | UACC-257 18.4 µM | OVCAR-8 21.6 µM | UO-31 35.2 µM | COLO 205 24 µM

O=C(/C=C/c1ccccc1O)C(c1ccccc1)c1ccccc1
inactive: RPMI-8226 72.6 µM | ACHN > 100 µM | SR > 100 µM | MOLT-4 > 100 µM | SW-620 13.1 µM | SF-539 > 100 µM | M19-MEL > 100 µM | OVCAR-3 > 100 µM | HT-29 > 100 µM | SNB-75 20.1 µM | K562 78.5 µM | UACC-257 > 100 µM | OVCAR-8 > 100 µM | UO-31 > 100 µM | COLO 205 39.3 µM

CS(=O)(=O)C1S(=O)(=O)OCCOS1(=O)=O
inactive: RPMI-8226 > 100 µM | ACHN > 100 µM | SR > 100 µM | MOLT-4 > 100 µM | SW-620 > 100 µM | SF-539 > 100 µM | M19-MEL > 100 µM | OVCAR-3 > 100 µM | HT-29 > 100 µM | SNB-75 > 100 µM | K562 > 100 µM | UACC-257 > 100 µM | OVCAR-8 > 100 µM | UO-31 > 100 µM | COLO 205 > 100 µM

O=C(O)C(CS)Nc1c2ccccc2nc2ccccc12 (stereo not given)
inactive: RPMI-8226 48.2 µM | ACHN 38.3 µM | SR 36.3 µM | MOLT-4 38.3 µM | SW-620 54.1 µM | SF-539 50 µM | M19-MEL 57 µM | OVCAR-3 49.9 µM | HT-29 46.6 µM | SNB-75 > 100 µM | K562 49.7 µM | UACC-257 58.5 µM | OVCAR-8 48.3 µM | UO-31 26 µM | COLO 205 37.7 µM

CC#CCC1CCC(OCC)=CC1=O (stereo not given)
inactive: RPMI-8226 > 100 µM | ACHN > 100 µM | SR > 100 µM | MOLT-4 > 100 µM | SW-620 > 100 µM | SF-539 > 100 µM | M19-MEL > 100 µM | OVCAR-3 > 100 µM | HT-29 > 100 µM | SNB-75 > 100 µM | K562 > 100 µM | UACC-257 > 100 µM | OVCAR-8 > 100 µM | UO-31 > 100 µM | COLO 205 > 100 µM

COc1ccc(Br)c(C(=O)N2CCc3ccccc32)c1N
inactive: RPMI-8226 40.6 µM | ACHN 49 µM | SR 20.3 µM | MOLT-4 31.3 µM | SW-620 49.1 µM | SF-539 27.5 µM | M19-MEL 45.6 µM | OVCAR-3 27.5 µM | HT-29 52 µM | SNB-75 26.9 µM | K562 30.2 µM | UACC-257 29.9 µM | OVCAR-8 32.3 µM | UO-31 33.8 µM | COLO 205 66.1 µM

Cc1cn(C2CC(O)C(COC(=O)c3ccccc3)O2)c(=O)[nH]c1=O (stereo not given)
inactive: RPMI-8226 > 100 µM | ACHN > 100 µM | SR > 100 µM | MOLT-4 > 100 µM | SW-620 > 100 µM | SF-539 > 100 µM | M19-MEL > 100 µM | OVCAR-3 > 100 µM | HT-29 > 100 µM | K562 > 100 µM | UACC-257 > 100 µM | OVCAR-8 > 100 µM | COLO 205 > 100 µM

CC(=O)n1cc(CC(C)O)c(=O)[nH]c1=O (stereo not given)
inactive: RPMI-8226 > 100 µM | ACHN > 100 µM | SR > 100 µM | MOLT-4 > 100 µM | SW-620 > 100 µM | SF-539 > 100 µM | M19-MEL > 100 µM | OVCAR-3 > 100 µM | HT-29 > 100 µM | SNB-75 > 100 µM | K562 > 100 µM | UACC-257 > 100 µM | OVCAR-8 > 100 µM | UO-31 > 100 µM | COLO 205 > 100 µM

CC(C)=CCCC1(C)C=Cc2c(c(C)cc3c2[nH]c2cc(O)ccc23)O1 (stereo not given)
inactive: RPMI-8226 > 25 µM | ACHN > 25 µM | SR 24 µM | MOLT-4 > 25 µM | SW-620 > 25 µM | SF-539 > 25 µM | M19-MEL > 25 µM | OVCAR-3 > 25 µM | HT-29 > 25 µM | K562 > 25 µM | OVCAR-8 > 25 µM | UO-31 > 25 µM | COLO 205 > 25 µM
